Measured values: ChEMBL document CHEMBL1201862, “PubChem BioAssay data set” (2004)
Active and inactive are the calls of the source.

Key:
[1] = insulin promoter down-regulators in MIN6 cells, imaging, high-content screening, mouse beta cells (AID 1628); assay type: functional
[2] = cytotoxicity in MIN6 insulinoma cells, dose response, cytotoxicity control, cell-based, mouse insulinoma (AID 2122); assay type: functional;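 note: confirmatory high-throughput counterscreen run to flag cytotoxic compounds; mouse MIN-6 beta cells carrying an insulin promoter eGFP reporter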
[3] = target: T1, Caspase-3 (Homo sapiens, UniProt P42574); assay type: functional;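 note: Dose-response selectivity test against caspase-3 for candidate inhibitors of sentrin-specific proteases (SENPs)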
T1 sequence (P42574 whole entry): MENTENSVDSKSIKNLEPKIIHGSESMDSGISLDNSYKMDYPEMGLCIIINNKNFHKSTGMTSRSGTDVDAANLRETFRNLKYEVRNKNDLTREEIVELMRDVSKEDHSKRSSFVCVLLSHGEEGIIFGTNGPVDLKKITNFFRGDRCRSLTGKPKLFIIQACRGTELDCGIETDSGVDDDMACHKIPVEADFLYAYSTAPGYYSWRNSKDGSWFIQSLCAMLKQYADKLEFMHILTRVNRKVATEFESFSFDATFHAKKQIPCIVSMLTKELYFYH

[4] = target: T2, Sentrin-specific protease 7 (Homo sapiens, UniProt Q9BQF6); assay type: functional;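 note: Luminescence-based dose-response confirmation of ultra-high-throughput screening hits, measuring inhibition of SENP7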
T2 sequence (Q9BQF6 whole entry): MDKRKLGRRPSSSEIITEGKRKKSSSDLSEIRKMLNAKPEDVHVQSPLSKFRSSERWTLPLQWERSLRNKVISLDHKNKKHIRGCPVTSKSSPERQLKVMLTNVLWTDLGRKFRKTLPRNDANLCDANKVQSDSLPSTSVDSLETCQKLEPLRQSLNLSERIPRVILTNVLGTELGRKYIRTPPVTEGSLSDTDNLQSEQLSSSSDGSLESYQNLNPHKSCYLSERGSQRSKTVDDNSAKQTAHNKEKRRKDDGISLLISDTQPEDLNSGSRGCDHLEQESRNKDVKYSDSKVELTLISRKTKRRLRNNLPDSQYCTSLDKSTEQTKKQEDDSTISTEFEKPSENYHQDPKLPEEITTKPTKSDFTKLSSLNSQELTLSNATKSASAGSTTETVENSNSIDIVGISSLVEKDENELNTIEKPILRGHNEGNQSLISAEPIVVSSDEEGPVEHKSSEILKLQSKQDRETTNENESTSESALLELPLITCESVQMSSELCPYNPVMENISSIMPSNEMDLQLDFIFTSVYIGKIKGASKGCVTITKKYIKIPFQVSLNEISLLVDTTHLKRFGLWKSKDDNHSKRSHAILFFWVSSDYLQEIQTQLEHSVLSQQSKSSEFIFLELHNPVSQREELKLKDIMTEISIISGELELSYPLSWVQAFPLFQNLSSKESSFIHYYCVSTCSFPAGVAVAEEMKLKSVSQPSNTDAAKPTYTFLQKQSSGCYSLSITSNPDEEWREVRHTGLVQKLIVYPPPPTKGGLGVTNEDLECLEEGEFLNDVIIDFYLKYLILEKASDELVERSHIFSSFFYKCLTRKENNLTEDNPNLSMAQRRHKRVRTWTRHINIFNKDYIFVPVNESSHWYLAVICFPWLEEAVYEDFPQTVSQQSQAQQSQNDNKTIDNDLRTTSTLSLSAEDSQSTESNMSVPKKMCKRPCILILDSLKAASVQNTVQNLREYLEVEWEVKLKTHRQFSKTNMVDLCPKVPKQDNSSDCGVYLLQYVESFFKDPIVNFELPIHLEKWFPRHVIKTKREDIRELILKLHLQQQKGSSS

[5] = target: T3, Sentrin-specific protease 6 (Homo sapiens, UniProt Q9GZR1); assay type: functional;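 note: Luminescence-based dose-response confirmatory assay of SENP6 inhibition, following up an ultra-high-throughput screen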
T3 sequence (Q9GZR1 whole entry): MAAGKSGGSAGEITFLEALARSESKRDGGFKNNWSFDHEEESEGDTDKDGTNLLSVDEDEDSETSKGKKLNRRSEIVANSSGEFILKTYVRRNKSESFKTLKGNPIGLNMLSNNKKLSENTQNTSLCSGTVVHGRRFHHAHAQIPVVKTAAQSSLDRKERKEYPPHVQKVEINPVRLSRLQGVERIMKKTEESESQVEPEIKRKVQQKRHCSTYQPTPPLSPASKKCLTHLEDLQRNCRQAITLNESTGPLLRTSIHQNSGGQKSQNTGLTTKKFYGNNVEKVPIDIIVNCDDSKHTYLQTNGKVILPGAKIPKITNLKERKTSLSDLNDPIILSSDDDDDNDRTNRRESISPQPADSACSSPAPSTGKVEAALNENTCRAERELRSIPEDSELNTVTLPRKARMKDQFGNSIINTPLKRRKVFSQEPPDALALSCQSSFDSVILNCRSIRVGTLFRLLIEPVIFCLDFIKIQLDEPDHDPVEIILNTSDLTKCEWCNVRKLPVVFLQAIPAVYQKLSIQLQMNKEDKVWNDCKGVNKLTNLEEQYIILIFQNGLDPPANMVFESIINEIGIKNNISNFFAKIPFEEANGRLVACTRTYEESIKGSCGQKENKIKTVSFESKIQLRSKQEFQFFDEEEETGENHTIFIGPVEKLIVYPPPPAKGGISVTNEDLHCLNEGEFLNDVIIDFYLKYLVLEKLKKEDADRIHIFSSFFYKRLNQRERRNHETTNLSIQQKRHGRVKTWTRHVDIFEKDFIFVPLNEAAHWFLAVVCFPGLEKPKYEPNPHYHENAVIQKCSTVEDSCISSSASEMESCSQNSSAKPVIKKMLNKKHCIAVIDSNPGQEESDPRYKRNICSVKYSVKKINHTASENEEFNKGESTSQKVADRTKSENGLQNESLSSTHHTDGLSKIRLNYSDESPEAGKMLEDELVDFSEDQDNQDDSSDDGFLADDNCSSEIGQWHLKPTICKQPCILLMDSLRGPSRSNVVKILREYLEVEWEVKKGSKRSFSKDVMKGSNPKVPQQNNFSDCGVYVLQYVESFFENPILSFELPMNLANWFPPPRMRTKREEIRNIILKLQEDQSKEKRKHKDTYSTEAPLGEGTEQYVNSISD

[6] = target: T4, Sentrin-specific protease 8 (Homo sapiens, UniProt Q96LD8); assay type: functional;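 note: luminescence read-out of SENP8 inhibition, dose-response confirmation following an ultra-high-throughput screen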
T4 sequence (Q96LD8 whole entry): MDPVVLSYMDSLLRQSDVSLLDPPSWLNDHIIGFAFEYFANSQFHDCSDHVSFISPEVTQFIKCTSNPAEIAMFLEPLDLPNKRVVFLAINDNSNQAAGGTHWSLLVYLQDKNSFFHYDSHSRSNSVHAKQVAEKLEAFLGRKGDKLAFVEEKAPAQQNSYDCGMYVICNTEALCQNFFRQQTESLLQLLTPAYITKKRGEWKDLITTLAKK

[7] = test system: INS1; test: beta cell apoptosis inhibitors, cytokine rescue, dose response, luminescence, retest (AID 449756); assay type: functional, cell-based; conditions: Rattus norvegicus;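 note: cell death triggered by IL-1 beta plus TNF-alpha plus IFN-gamma mixture; protective hits raise ATP signal compared with cytokine alone wells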
[8] = target: T5, Fatty acid synthase (Homo sapiens, UniProt P49327); test: FAS thioesterase domain inhibitors, dose response, biochemical, endpoint fluorescence intensity, uHTS hits (AID 624327); assay type: functional;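 note: fluorescence from hydrolysis of an O-methyl fluorescein acyl ester substrate by the enzyme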
[9] = target: T5, Fatty acid synthase; test: FAS thioesterase domain inhibitors, dose response, biochemical, kinetic fluorescence intensity (AID 624326); assay type: functional;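 note: rate of fluorescence rise from hydrolysis of a fluorogenic O-methyl fluorescein ester substrate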
[10] = target: T6, Microphthalmia-associated transcription factor (Homo sapiens, UniProt O75030); test: TRPM1 promoter luciferase signal decrease, dose response, MITF inhibitor project, cell-based, SK-MEL-5, cherry-picked, set 3 (AID 493073); assay type: functional
T6 sequence (O75030 whole entry): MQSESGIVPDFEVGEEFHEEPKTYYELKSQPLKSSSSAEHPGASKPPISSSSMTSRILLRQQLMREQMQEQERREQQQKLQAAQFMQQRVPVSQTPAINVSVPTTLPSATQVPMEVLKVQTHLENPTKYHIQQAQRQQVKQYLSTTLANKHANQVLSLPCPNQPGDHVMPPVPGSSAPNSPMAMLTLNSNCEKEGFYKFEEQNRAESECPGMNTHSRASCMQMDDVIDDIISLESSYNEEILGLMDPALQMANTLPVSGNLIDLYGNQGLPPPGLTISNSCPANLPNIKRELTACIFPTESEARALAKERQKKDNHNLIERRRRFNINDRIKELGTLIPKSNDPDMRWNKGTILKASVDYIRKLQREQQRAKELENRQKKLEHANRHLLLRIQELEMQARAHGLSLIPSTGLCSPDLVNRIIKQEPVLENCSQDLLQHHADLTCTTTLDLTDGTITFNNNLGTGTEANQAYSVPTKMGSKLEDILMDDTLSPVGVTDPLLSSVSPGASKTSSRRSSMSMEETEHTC

[11] = test system: A-375; test: MITF: Counter assay: A375 proliferation Measured in Cell-Based System Using Plate Reader - 2084-03_Inhibitor_Dose_DryPowder_Activity. [Related pubchem assays (depositor defined):AID488944]; assay type: functional; conditions: Homo sapiens
[12] = inhibitors of PGC1a acetylation in cells, dose response, cell-based, cherry-picked samples (AID 720514); assay type: functional;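 note: potency may reflect raised or lowered acetylation signal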
[13] = test system: Jurkat; test: antigen receptor-induced NF-kB inhibitors, dose response, Jurkat, luciferase reporter, luminescence, B- and T-cell (AID 489004); assay type: functional, cell-based; conditions: Homo sapiens;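 note: NF-kB luciferase reporter Jurkat cells stimulated with PMA plus ionomycin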
[14] = cytotoxicity in HEK-293T NF-kB-Luc cells, dose response, cytotoxicity control for B/T-cell NF-kB inhibitor project, cell-based, uHTS hits (AID 489019); assay type: functional;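 note: IC50 reflects cytotoxicity as loss of cell viability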
[15] = test system: Candida albicans; test: reversal of fluconazole resistance in C. albicans, dose response, CaCi-2 strain, Alamar Blue, dry powder, set 3 (AID 488907); assay type: functional, organism-based
[16] = test system: HEK293; test: NOD1 signaling inhibitors, primary screen, cell-based, luminescence, uHTS (AID 1578); assay type: functional; conditions: Homo sapiens
[17] = test system: HEK293; test: Fluorescence-based counterscreen for potentiators or agonists of NPY-Y2: cell-based high-throughput dose response assay to identify inhibitors of cyclic nucleotide gated ion channel (CNGC) activity. In this assay, the parental HEK293 cell line transfected with a cyclic-nucleotide gated ion channel (CNGC)-based cAMP sensor is used to measure inhibition of isoproterenol-induced CNGC activity by test compound.; assay type: functional; conditions: Homo sapiens
[18] = test system: HEK293; test: cells; assay type: functional, cell-based; conditions: Homo sapiens
[19] = target: T7, Neuropeptide Y receptor type 2 (Homo sapiens, UniProt P49146); test: Fluorescence-based cell-based high-throughput dose response assay for agonists of NPY-Y2. [Related pubchem assays: 1703 (Screening assay (CNGC inhibitors).), 1359 (Screening assay (NPY-Y2 potentiators or agonists).), 1304 (Screening assay (NPY-Y1 potentiators or agonists).), 1710 (Screening assay (NPY-Y2 agonists).), 1791 (Summary AID.)]; assay type: functional
T7 sequence (P49146 whole entry): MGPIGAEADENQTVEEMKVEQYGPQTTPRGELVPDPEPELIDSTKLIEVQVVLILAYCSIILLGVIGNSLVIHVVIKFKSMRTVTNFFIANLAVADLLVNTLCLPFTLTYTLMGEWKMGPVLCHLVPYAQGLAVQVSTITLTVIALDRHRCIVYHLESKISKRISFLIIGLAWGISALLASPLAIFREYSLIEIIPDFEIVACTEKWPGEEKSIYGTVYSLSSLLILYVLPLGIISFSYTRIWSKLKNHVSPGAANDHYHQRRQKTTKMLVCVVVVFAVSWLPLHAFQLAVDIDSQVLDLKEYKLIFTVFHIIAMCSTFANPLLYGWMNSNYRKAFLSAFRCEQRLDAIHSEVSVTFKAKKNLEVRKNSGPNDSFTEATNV

[20] = test system: HEK293; test: cells; assay type: functional, cell-based; conditions: Homo sapiens; remark: listed apart in the source
[21] = target: Nucleotide-binding oligomerization domain-containing protein 2 (Homo sapiens, UniProt Q9HC29); test: NOD2 signaling inhibitors, cell-based, luminescence, uHTS, HEK293 (AID 1566); assay type: functional
[22] = test system: HEK293; test: NOD2 signaling inhibitors in MDP-stimulated cells, cell-based, uHTS, luminescence (AID 2001); assay type: functional; conditions: Homo sapiens
[23] = test system: HEK293; test: cells; assay type: functional, cell-based; conditions: Homo sapiens; remark: listed apart in the source
[24] = target: T8, Neuropeptide Y receptor type 1 (Homo sapiens, UniProt P25929); test: Fluorescence-based counterscreen for agonists of NPY-Y2: cell-based high-throughput dose response assay for agonists of NPY-Y1.; assay type: functional
T8 sequence (P25929 whole entry): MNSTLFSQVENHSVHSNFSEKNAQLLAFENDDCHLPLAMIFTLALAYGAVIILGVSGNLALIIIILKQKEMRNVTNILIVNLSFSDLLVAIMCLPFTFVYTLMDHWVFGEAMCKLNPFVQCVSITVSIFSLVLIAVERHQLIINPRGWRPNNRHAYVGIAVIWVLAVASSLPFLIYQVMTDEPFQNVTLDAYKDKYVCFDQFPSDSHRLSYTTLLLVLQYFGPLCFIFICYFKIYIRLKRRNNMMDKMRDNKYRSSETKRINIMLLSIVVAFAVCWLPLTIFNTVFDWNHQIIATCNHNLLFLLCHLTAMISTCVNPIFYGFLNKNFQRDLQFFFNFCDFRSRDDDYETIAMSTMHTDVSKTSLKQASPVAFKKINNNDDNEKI

[25] = THP-1 cell cytotoxicity, dose response, cytotoxicity control for non-replicating M. tuberculosis project (AID 489025); assay type: functional
[26] = HepG2 cell cytotoxicity, dose response, cytotoxicity control for non-replicating M. tuberculosis project (AID 489018); assay type: functional; conditions: Mycobacterium tuberculosis
[27] = cells; assay type: functional
[28] = test system: Vero; test: cells; assay type: functional; conditions: Chlorocebus sabaeus

T5 sequence (P49327 whole entry, the tested form may be a part): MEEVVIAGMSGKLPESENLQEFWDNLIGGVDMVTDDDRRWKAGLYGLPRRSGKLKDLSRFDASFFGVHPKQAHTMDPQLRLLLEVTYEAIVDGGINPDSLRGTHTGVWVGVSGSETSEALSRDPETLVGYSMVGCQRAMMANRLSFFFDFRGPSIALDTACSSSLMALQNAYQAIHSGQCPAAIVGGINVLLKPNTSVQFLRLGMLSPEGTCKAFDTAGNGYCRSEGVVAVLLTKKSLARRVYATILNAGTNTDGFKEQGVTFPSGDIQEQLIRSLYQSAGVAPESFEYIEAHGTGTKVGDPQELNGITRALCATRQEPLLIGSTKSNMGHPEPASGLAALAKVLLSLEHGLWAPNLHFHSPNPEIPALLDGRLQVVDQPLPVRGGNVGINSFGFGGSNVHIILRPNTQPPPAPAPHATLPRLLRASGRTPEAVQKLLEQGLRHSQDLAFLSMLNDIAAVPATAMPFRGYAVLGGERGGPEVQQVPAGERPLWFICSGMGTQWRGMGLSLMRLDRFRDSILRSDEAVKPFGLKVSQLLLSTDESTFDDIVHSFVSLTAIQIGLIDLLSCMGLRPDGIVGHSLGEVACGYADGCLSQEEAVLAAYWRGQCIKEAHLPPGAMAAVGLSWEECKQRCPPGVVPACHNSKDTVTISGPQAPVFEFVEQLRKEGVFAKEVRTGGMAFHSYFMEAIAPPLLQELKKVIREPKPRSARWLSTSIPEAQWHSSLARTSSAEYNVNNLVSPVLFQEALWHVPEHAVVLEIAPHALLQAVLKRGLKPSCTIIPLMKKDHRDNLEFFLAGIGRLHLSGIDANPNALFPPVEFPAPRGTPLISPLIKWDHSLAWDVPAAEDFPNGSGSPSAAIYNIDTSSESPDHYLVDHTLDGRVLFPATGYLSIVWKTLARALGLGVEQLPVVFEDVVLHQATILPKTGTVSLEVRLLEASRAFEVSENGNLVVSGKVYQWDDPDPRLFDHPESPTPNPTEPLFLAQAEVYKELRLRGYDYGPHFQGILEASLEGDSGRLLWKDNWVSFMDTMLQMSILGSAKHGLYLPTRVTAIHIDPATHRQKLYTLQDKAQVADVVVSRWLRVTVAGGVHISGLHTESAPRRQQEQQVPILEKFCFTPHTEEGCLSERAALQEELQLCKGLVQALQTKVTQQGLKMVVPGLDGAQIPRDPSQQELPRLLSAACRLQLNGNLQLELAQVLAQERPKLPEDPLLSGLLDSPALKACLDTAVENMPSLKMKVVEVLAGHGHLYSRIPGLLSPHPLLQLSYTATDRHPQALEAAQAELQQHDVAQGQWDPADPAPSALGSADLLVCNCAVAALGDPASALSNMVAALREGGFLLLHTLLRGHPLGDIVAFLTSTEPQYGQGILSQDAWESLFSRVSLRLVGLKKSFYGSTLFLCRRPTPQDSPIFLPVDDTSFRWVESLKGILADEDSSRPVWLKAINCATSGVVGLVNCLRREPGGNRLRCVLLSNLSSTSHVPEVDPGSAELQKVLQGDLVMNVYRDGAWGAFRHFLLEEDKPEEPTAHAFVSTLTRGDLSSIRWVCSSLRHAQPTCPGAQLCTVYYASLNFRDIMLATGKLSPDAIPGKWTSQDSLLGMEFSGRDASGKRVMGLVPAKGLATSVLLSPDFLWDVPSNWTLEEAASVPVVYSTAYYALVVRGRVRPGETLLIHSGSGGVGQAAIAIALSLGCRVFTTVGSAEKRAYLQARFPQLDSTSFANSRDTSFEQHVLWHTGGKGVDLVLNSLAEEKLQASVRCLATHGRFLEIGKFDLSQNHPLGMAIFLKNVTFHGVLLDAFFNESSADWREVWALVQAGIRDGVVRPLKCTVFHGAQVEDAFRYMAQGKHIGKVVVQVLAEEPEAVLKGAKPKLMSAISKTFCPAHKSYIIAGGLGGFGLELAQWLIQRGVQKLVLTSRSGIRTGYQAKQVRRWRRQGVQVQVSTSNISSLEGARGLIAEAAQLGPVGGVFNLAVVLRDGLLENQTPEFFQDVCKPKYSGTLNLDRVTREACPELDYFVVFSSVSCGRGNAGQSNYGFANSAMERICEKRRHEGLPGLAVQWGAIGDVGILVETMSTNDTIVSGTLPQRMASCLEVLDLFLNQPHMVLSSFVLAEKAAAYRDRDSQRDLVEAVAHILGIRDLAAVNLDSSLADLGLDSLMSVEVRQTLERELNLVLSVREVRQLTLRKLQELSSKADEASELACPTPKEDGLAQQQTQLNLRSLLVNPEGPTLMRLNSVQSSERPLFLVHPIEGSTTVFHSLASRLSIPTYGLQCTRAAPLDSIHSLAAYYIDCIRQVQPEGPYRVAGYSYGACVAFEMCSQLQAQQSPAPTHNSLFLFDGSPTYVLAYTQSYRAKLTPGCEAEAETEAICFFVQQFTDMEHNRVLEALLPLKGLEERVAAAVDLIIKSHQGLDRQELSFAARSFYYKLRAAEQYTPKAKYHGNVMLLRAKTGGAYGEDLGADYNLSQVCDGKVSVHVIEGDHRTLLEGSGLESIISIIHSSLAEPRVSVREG
Chain of Nucleotide-binding oligomerization domain-containing protein 2 (Q9HC29 whole entry, the tested form may be a part): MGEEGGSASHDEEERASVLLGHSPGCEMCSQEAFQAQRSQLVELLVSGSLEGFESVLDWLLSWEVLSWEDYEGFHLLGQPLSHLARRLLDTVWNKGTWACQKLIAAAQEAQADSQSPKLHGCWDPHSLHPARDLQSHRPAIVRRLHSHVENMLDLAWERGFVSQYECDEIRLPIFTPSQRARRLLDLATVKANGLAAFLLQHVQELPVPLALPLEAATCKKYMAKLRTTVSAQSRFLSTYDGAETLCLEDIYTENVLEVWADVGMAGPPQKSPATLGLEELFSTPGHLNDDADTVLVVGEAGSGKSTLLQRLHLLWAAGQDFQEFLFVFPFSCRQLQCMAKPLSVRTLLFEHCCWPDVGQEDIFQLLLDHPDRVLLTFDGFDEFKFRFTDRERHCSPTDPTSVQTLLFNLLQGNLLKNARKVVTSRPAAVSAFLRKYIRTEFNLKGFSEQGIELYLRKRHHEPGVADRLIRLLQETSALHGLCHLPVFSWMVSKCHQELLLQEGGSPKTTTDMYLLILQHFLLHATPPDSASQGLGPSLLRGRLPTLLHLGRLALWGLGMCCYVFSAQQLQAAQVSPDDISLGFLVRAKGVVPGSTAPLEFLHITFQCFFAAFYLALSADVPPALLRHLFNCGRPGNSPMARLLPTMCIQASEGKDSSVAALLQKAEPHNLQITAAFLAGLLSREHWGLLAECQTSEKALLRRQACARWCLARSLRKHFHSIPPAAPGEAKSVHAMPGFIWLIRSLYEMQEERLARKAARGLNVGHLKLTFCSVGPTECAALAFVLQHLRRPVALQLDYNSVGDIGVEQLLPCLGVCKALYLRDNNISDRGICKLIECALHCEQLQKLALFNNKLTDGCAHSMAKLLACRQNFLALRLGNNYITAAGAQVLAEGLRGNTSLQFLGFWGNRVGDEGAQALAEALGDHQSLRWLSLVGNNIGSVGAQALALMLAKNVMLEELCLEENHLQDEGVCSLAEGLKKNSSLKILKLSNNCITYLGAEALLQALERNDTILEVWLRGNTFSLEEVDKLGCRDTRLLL

## O=C(Nc1ccc(OC(F)(F)F)cc1)Nc1cccc([N+](=O)[O-])c1
[1]
  IC50: 1.42 µM (active)
[2]
  IC50: 1.27 µM (active)
[3]
  IC50: 89.9 µM (active)
[4]
  IC50: 8.57 µM (active)
[5]
  IC50: > 100 µM (inactive)
[6]
  IC50: > 100 µM (inactive)
[7]
  AC50: 2.8 µM (active)
[8]
  IC50: 6.74 µM (active)
[9]
  IC50: 6.14 µM (active)

## Cc1cccc(NC(=O)CNC(=O)Cn2ncc(Cl)c(Cl)c2=O)c1C
[10]
  AC50: 13.4 µM (active)
[11]
  AC50: 20.5 µM (active)
[12]
  AC50: 6.82 µM (active)

## COc1ccc(/C=C2\SC(=O)N(CCCC(=O)Nc3cc(Cl)ccc3C(=O)O)C2=O)cc1
[13]
  IC50: < 0.16 µM (active)
[14]
  IC50: > 80 µM (inactive)
[10]
  AC50: 0.528 µM (active)

## O=C(c1ccc(Cl)cc1)N1CCN(c2ncccc2C(F)(F)F)CC1
[15]
  AC50: 0.217 µM (active)

## O=C(N/N=C/c1cccc2cccnc12)c1ccccc1O
[16]
  EC50: > 20 µM (inactive)
[17]
  EC50: > 35.4 µM (not active)
[18]
  IC50: 6.52 µM (active)
[19]
  EC50: > 35.4 µM (not active)
[20]
  IC50: > 20 µM (inactive)
[21]
  EC50: > 20 µM (inactive)
[22]
  IC50: 5.04 µM (inactive)
[23]
  IC50: > 20 µM (inactive)
[24]
  EC50: > 35.4 µM (not active)
[25]
  CC50: 11.7 µM (active)
[26]
  CC50: > 20 µM (active)
[10]
  AC50: 24.8 µM (active)
[27]
  IC50: 0.97 µM (active)
[28]
  CC50: 18.8 µM (active)
